Earlier results as cited in patent publication US9913917B2, “Biocompatible fluorescent metal oxide nanoparticles” (VisEn Medical, Inc., priority 2005, dated 2018).

Conditions: free fluorochrome

Absorbance max: 675 nm | εmax: 250,000 M^−1cm^−1
Substance: Cy5.5
